Laboratory results reported in patent publication US20250059179A1, “Heterocyclic Compounds and Methods of Use” (AMGEN INC., priority 2021, published 2025).

Key:
[1] = target: GDP-bound KRAS protein (aa 1-169), containing both G12D and C118A amino acid substitutions (Homo sapiens, UniProt P01116, C118A/G12D); assay: KRAS G12D Coupled Nucleotide Exchange Assay; format: biochemical; settings: 2 h compound pre-incubation; SOS-mediated nucleotide exchange, cRAF AlphaScreen readout;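 also: IC50 obtained by fitting the AlphaScreen signal with a four-parameter logistic curve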
[2] = target: His-tagged KRAS G12D protein (Homo sapiens, UniProt P01116, G12D); assay: KRAS G12D TR-FRET Assay; format: binding; settings: biotinylated KRPep-2d substrate, 10 μM GDP;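 also: europium anti-His antibody paired with streptavidin-d2 as FRET partners, initial 30 min incubation, then peptide 1 h and detection reagents 1 h, all at room temperature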
His-tagged KRAS G12D protein, sequence (P01116 1-188 isoform P01116-2 G12D): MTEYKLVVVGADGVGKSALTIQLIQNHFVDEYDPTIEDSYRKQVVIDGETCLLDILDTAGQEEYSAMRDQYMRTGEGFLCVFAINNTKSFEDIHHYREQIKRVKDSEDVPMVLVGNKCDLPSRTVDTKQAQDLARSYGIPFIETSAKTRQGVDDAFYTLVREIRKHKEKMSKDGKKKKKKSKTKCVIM

GDP-bound KRAS protein (aa 1-169), containing both G12D and C118A amino acid substitutions, sequence (P01116 1-169 isoform P01116-2 G12D/C118A): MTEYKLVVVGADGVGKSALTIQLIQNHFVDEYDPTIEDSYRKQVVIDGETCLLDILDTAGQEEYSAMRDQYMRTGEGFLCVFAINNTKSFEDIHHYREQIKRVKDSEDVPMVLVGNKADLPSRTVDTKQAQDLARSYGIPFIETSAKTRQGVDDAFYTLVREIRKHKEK

Row | SMILES | Avg 2 h Coupled Exchange IC50 [1] [nM] | IC50 [2] [nM]
1 | CN1C[C@H](F)C[C@H]1COc1nc(N2CCNCC2)c2cc(Cl)c(-c3cccc4sc(N)nc34)c(F)c2n1 [Example 49, 4-(6-chloro-8-fluoro-2-(((2S,4R)-4-fluoro-1-methyl-pyrrolidin-2-yl)methoxy)-4-(piperazin-1-yl)quinazolin-7-yl)benzo[d] thiazol-2-amine] | 38 | 141
2 | CN1CCC[C@H]1CNc1nc(N2CCNCC2)c2cc(Cl)c(-c3cccc4sc(N)nc34)c(F)c2n1 [Example 70, 4-(6-chloro-8-fluoro-2-((((S)-1-methyl-pyrrolidin-2-yl)methyl)amino)-4-(piperazin-1-yl)quinazolin-7-yl)benzo[d] thiazol-2-amine] | 2140 | 10700
3 | Nc1nc2c(-c3c(Cl)cc4c(N5CCNCC5)nc(OCC56CCCN5CCC6)nc4c3F)ccc(F)c2s1 [Example 8, 4-(6-chloro-8-fluoro-4-(piperazin-1-yl)-2-((tetrahydro-1H-pyrrolizin-7a(5H)-yl)methoxy)quinazolin-7-yl)-7-fluorobenzo[d] thiazol-2-amine] | 7 | 9
4 | Nc1nc2c(-c3c(Cl)cc4c(N5CCNCC5)nc(OCC56CCCN5CCC6)nc4c3F)cccc2s1 [Example 44, 4-(6-chloro-8-fluoro-4-(piperazin-1-yl)-2-((tetrahydro-1H-pyrrolizin-7a(5H)-yl)methoxy)quinazolin-7-yl)benzo[d] thiazol-2-amine] | 14 | 30
5 | CN1CCC[C@H]1COc1nc(N2CCNC(C(F)(F)F)C2)c2cc(Cl)c(-c3cccc4sc(N)nc34)c(F)c2n1 (stereo partly drawn) [Example 1, 4-(6-Chloro-8-fluoro-2-(((S)-1-methylpyrrolidin-2-yl)methoxy)-4-(3-(trifluoromethyl)piperazin-1-yl)quinazolin-7-yl)benzo[d]thiazol-2-amine] | 3655 | 11300
6 | CN1CCC[C@H]1COc1nc(N2C[C@H]3CC[C@@H]2CN3)c2cc(Cl)c(-c3cccc4sc(N)nc34)c(F)c2n1 [Example 27, 4-(4-((1R,4R)-2,5-diazabicyclo[2.2.2]octan-2-yl)-6-chloro-8-fluoro-2-(((S)-1-methylpyrrolidin-2-yl)methoxy)quinazolin-7-yl)benzo[d]thiazol-2-amine] | 429 | 1210
7 | CN1CCC[C@H]1COc1nc(N2CCNCC2)c2cc(F)c(-c3cccc4sc(N)nc34)c(F)c2n1 [Example 134, 4-(6,8-difluoro-2-(((S)-1-methylpyrrolidin-2-yl)methoxy)-4-(piperazin-1-yl)quinazolin-7-yl)benzo[d]thiazol-2-amine] | 391 | 2390
8 | C[C@H](CN(C)C)Oc1nc(N2CCNCC2)c2cc(Cl)c(-c3cccc4sc(N)nc34)c(F)c2n1 [Example 69, 4-(6-chloro-2-(((R)-1-(dimethylamino)propan-2-yl)oxy)-8-fluoro-4-(piperazin-1-yl)quinazolin-7-yl)benzo[d] thiazol-2-amine] | 1890 | 7720
9 | Nc1nc2c(-c3c(F)cc4c(N5[C@@H]6CC[C@H]5CNC6)nc(OC[C@@]56CCCN5C[C@H](F)C6)nc4c3F)ccc(F)c2s1 [Example 142, 4-(4-((1R,5S)-3,8-diazabicyclo[3.2.1]octan-8-yl)-6,8-difluoro-2-(((2R,7aS)-2-fluorotetrahydro-1H-pyrrolizin-7a(5H)-yl)methoxy)quinazolin-7-yl)-7-fluorobenzo[d]thiazol-2-amine] | 7 | 4
10 | CC1CNCC=C1c1nc(OC[C@@H]2CCCN2C)nc2c(F)c(-c3cccc4sc(N)nc34)c(Cl)cc12 (single isomer, unassigned) [Example 145] | 803 | 2970
